{"source": "patent US9205046B2", "about": "“Enhanced stability of inverse thermal gelling composite hydrogels” (The Governing Council of the University of Toronto, priority 2005, dated 2015)", "key": {"[1]": {"assay": "Drug diffusivity in HMW HAMC", "assay_type": "physicochemical", "settings": "in 2:3 HMW HAMC", "from_the_text": "The diffusivity of a given drug in HMW HAMC, D, was normalized to its diffusivity in water, Do, to determine the impact of HMW HAMC on molecular diffusion [N. A. Peppas, C. T. Reinhart, Solute diffusion in swollen membranes. 1. A new theory. J. Membr. Sci. 15 (3) (1983) 275-287. Approximations of D for NBQX, α-chymotrypsin, and IgG in HMW HAMC were estimated according to the one dimensional, unidirectional, thin film approximation for non-swelling samples at short times [J. Crank, The Mathematics of Diffusion, Clarendon Press, Oxford, 1956.]. Normalized diffusion coefficients were then determined with respect to previously reported values of Do according to:\n[formula] Where Mt/M∞ is the cumulative mass of drug detected at time, t, divided by the total mass released and l is the sample thickness.\nApproximately 100 mg of HAMC with a drug loading of 100-1000 μg/mL was deposited into a cylindrical sample tube to yield a gel with thickness of 0.3 cm and one exposed surface. Samples were warmed to 37° C. and combined with 900 μL of warm aCSF. The buffer was sampled with total replacement at 0.5, 1, 2, and 5 hours and analyzed and described below."}, "[2]": {"assay": "In vitro drug release from HAMC hydrogels and composites", "assay_type": "physicochemical", "settings": "for burst release from PLGA particles in composite versus free particles: composite 2:3 HMW HAMC", "experimental": "Release profiles of each particle encapsulated drug were obtained by depositing approximately 150 mg of drug loaded 2:3 HMW HAMC into polypropylene sample tubes, warming to 37° C., and adding 600 μL warm aCSF. […] Particle loads were typically 30-40 mg PLGA per gram of composite. […] All sample aliquots were immediately frozen and stored at −20° C. until analysis. […] Each sample was thawed immediately prior to assay and clear supernatant analyzed for dissolved drug."}, "[3]": {"assay": "Characterization of drug loaded PLGA particles", "assay_type": "physicochemical", "settings": "laser diffraction or dynamic light scattering", "experimental": "PLGA microparticle synthesis was optimized for each factor encapsulated and thus synthesis varied slightly for each factor, described below for EGF, dbcAMP, IgG and α-chymotrypsin. Microparticle size was determined by laser diffraction (Mastersizer 2000™, Malvern Instruments, Malvern, UK): nanoparticle size was determined by dynamic light scattering (Zetasizer Nano ZS™, Malvern Instruments). Encapsulation efficiency was defined as the fraction of drug detected per unit mass of particle compared to the theoretical maximum. Particle yield is the mass of recovered particulate PLGA adjusted for drug content, divided by the initial PLGA mass. Drug loading is the mass fraction of drug in the particles expressed as microgram of drug per milligram of particles.\nEGF content was determined by degrading the PLGA in 1 M NaOH for 24 h at 37° C., centrifuging the resulting suspension and assaying the supernatant for total protein using the BCA assay.\ndbcAMP content was determined by DCM/water solvent extraction. PLGA was dissolved in DCM and extracted 3×. Aqueous dbcAMP concentration was determined by UV absorbance at 273 nm on a Nanodrop ND-1000™ (Thermo Fisher Scientific).\nProtein content was determined based on a method by Wong [Wong, H. M., Wang, J. J., and Wang, C, In Vitro Sustained Release of Human Immunoglobulin G from Biodegradable Microspheres. Ind. Eng. Chem. Res., 2001. 40: p. 933-948]. […]"}, "[4]": {"tested_on": "mature blood vessels in the dorsal horns of the injured spinal cord", "assay": "Intrathecal FGF2 delivery with composite HAMC after compressive spinal cord injury, SMI-71 blood vessel count", "assay_type": "in vivo, Sprague Dawley rats", "settings": "rat, moderate compressive SCI at T2, 10 μl intrathecal composite 1:3 HMW HAMC with FGF2 PLGA nanoparticles, 28 days", "experimental": "Physical hydrogel blends of hyaluronan (HA) and methyl cellulose (MC) were prepared in aCSF at 1 wt % 2600 kg/mol HA and 3 wt % 300 kg/mol MC as previously reported (1:3 HMW HAMC [M. D. Baumann, C. E. Kang, J. C. Stanwick, Y. Wang, H. Kim, Y. Lapitsky, and M. S. Shoichet, An injectable drug delivery platform for sustained combination therapy, J Control Release. (2009)]. Briefly, MC and HA were sequentially mechanically dispersed in aCSF and allowed to dissolve at 4° C. To form composite 1:3 HMW HAMC, slurries of particles were added together for a final concentration of 100 mg/mL. PLGA nanoparticles were prepared from a w/o/w double emulsion as previously described [[…]], either as blank nanoparticles or encapsulating FGF2.\nAll animal procedures were performed in accordance with the Guide to the Care and Use of Experimental Animals (Canadian Council on Animal Care) and protocols were approved by the Animal Care Committee of the Research Institute of the University Health Network. […] Blood vessels were then counted in the dorsal horns of the spinal cord (See FIG. 8). Statistical significance was determined by ANOVA followed by Tukey's post-hoc test."}}, "note": "“Also recorded” adds a separate entry of the source."}
{"molecule": "2,3-Dioxo-6-nitro-1,2,3,4-tetrahydrobenzo[f]quinoxaline-7-sulfonamide disodium salt [NBQX, reference compound]", "values": [{"measurement": "normalized diffusion coefficient", "setting": "[1]", "value": "~0.1"}, {"measurement": "release mechanism of dissolved drug", "setting": "[2]; dissolved in 2:3 HMW HAMC", "value": "diffusion limited"}]}
{"molecule": "CCCC(=O)Nc1ncnc2c1ncn2[C@@H]1O[C@@H]2COP(=O)([O-])O[C@H]2[C@H]1OC(=O)CCC.[Na+]", "note": "[dbcAMP, N^6,2′-O-dibutyryladenosine 3′,5′-cyclic monophosphate sodium salt, reference compound]", "values": [{"measurement": "duration of in vitro release of PLGA particle encapsulated drug", "setting": "[2]; PLGA particles dispersed in composite 2:3 HMW HAMC", "value": 28, "unit": "days"}, {"measurement": "burst release from PLGA particles in composite versus free particles", "setting": "[2]", "value": "reduction in burst release"}, {"measurement": "Particle Size (μm)", "setting": "[3]", "value": "37 ± 14", "unit": "μm"}]}
{"molecule": "EGF: Recombinant human epidermal growth factor", "values": [{"measurement": "burst release from PLGA particles in composite versus free particles", "setting": "[2]", "value": "atypical behaviour"}, {"measurement": "Particle Size (μm)", "setting": "[3]", "value": "10 ± 2", "unit": "μm"}]}
{"molecule": "FGF-2: Recombinant human basic fibroblast growth factor", "values": [{"measurement": "normalized diffusion coefficient", "setting": "[1]", "value": "~0.1"}, {"measurement": "mature blood vessels in the dorsal horns (angiogenesis)", "setting": "[4]", "value": "results in angiogenesis; also recorded: enhanced blood vessels"}, {"measurement": "release mechanism of dissolved drug", "setting": "[2]; dissolved in 2:3 HMW HAMC", "value": "diffusion limited"}, {"measurement": "time to complete in vitro release of dissolved drug", "setting": "[2]; dissolved in 2:3 HMW HAMC, aCSF, 37 °C", "value": "≤ 4", "unit": "days"}]}
